Measurements: US8337906B2, “Nasal composition” (priority 2006, dated 2012)

What was measured:
Format in all cases: cell-based
[1] = system: Pseudomonas aeruginosa (PAO1) biofilm; assay: Peg-lid biofilm formation assay (crystal violet, 595 nm); conditions: dilutions 0.010% to 10.000%
Protocol: (§1) The anti-bacterial properties of ascorbic acid were evaluated by testing the effect of dilutions of the material on both biofilm and planktonic growth forms of a Pseudomonas aeruginosa isolate that was obtained from patients with cystic fibrosis. Pseudomonas aeruginosa is a common pathogen isolated from the sinuses of patients with chronic rhinosinusitis. The results of this evaluation as shown graphically in FIG. 1.
(§2) Known concentrations of the bacteria were placed in the 96 well culture plates. Dilutions of ascorbic acid (0% (Control), 0.010%, 0.033%, 0.100%, 0.330%, 1.000%, 3.330%, and 10.000%) were added to predetermined wells. […] The bacterial growth was measured both on the pegs as a biofilm and in the wells as planktonic cells.
(§3) More specifically, both bacterial planktonic and biofilm growth were determined using a modification of the plate based assay described by “Moskowitz et al. (Moskowitz S M, Foster J M, Emerson J, et al. Clinically feasible biofilm susceptibility for isolates of Pseudomonas aeruginosa from patients with cystic fibrosis. J. Clin. Microbiol. 2004, 42: 1915-1922). […] The original culture plate was read at OD600 to determine planktonic growth. […] The lid containing the pegs was then removed from the eluted crystal violet and read at 595 nm using a plate reader (Microplate Reader 680, Bio-Rad Hercules, Calif.). […]

[2] = system: human sinonasal mucosa cilia; assay: Cilia beat frequency (CBF) in human sinonasal mucosa explants
Excerpt: […] were subjected to concentrations of the nasal spray solution to test the effect of the product on the cilia beat frequency (CBF). The samples were microscopically visualized and the images captured at a rate of 250 frames per second using digital image sampling. The samples were first visualized for two to three seconds every minute for five minutes to establish a baseline Cilia Beating Rate. The samples were then subjected to dilutions of the formulation and the effect on the beating rate was measured by comparing this rate to the baseline rate. The results of the measured CBF are seen in FIG. 2.
More specifically, using a dual temperature controlled perfusion chamber, differential interference contrast microscopy, and high speed digital video, epithelial ciliary function was analyzed as described previously (Schipor I, Palmer I N, Cohen A S, Cohen N A. Quantification of ciliary beat frequency in sinonasal epithelial cells using differential interference contrast microscopy and high speed digital video imaging. Am J Rhino 12006; 20: 124-7). Residual human sinonasal mucosa from surgery was placed in ice cold Locke Ringer's solution [136 mM Nacl, 5.6 mM KCI, 10 mM HEPES, 14.3 mM NaHCO, 1.2 mM MgCl2, 2.2 mM CaCl2 and 11.5 mM dextrose, pH 7.35] for transport. Explants were placed in a glass perfusion chamber on a thermostatically controlled stage and held in place with a nylon grid (1.5 mm) whose outer frame is snapped into the inside of the perfusion chamber. The stage and perfusate were maintained at a temperature between 35.5° C. and 37° C. with a dual channel heater (Warner Inst., Hamden Conn.). […]
Images were visualized using a Leica DMLFSA microscope set on an air table (TMC, Peabody, Mass.) using a water immersion 63× objective and differential interference contrast (DIC) optics (Leica Microsystems, Inc., Bannockburn, Ill.). […] A two to three second video was recorded every minute for 5 minutes to establish a baseline frequency. […] The video images were written to a PCI 2.2 board and then analyzed using Midas Professional Analyst video imaging processing software (XCitex, Cambridge, Mass.).
Beating cilia were analyzed using the 1-D line tracking algorithm included in the motion analysis software. […] The software captured the motion history within the analysis grid for the duration of the video and recorded the gray scale intensity variation as a function of time. […] The frequency was calculated as the inverse of the peak-to-peak distance of this waveform. For each sample, at least three areas of beating cilia within the same field were analyzed and the reported frequencies represent the arithmetic means of these values. […]

[3] = system: Pseudomonas aeruginosa (PAO1); assay: Plate based assay, planktonic growth (OD600); conditions: dilutions 0.010% to 10.000%
Protocol: as §1, §2, §3

**Q.** Which “inhibition of biofilm form (in words)” value [1] does the source give for `O=C1O[C@H]([C@@H](O)CO)C(O)=C1O` [ascorbate, ascorbic acid] here?
**A.** dose dependent inhibition

**Q.** And the “sinonasal CBF with increasing concentration (in words)” value ([2]; 0.01% to 0.1%)?
**A.** increasing trend

**Q.** What about the “increase in CBF” value ([2]; 0.1% ascorbate vs control) of the same compound?
**A.** 13.5%

**Q.** What about the “increase in mucous transport” value ([2]; 0.1% ascorbate, extrapolated from CBF increase) of the same compound?
**A.** ~50%

**Q.** What about the CBF ([2]; 0.1% ascorbate, control 11.8 Hz) of the same compound?
**A.** 1304 Hz

**Q.** And the “inhibition of planktonic form (in words)” value [3]?
**A.** dose dependent inhibition
